Laboratory results reported in PMC9246773, “Assessing the Activity of Antimicrobial Peptides Against Common Marine Bacteria Located in Rotifer (Brachionus plicatilis) Cultures” (Probiotics and Antimicrobial Proteins, 2022).
No end group written: not given here.

Tests used:
Format in all cases: cell-based
[1] = test system: Escherichia coli (ATCC 25922); details: ATCC 25922, 48 h
Description: (§1) A range of bacterial species with the potential to be transferred to developing fish larvae as pathogens or probiotics were selected for use in the study (Table 2). Bacterial isolates were stored at −80 °C and thawed, and 25 µL of the isolates was spread onto marine salt agar (MSA) media. All isolates were incubated at 25 °C for 18 h to reach mid-log growth phase. All isolates were sub-cultured and identified using mass spectrometry (MALDI-TOF) using the BioTyper and MBT 8468 library (Bruker Pty Ltd). The isolate Tenacibaculum discolor was plated on Anacker and Oradal’s marine (AOM) media, incubated for 48 h and identified using the aforementioned method. Bacterial isolates were suspended in sterile saline (0.75% NaCl w/v) to 0.5 McFarland standard. […] The bacterial isolates T. discolor and Pseudoalteromonas sp. require marine salts to grow and were not added to MHB (0‰). The isolate T. discolor requires low nutrients to grow, therefore, a separate MHB (25‰) was prepared at a diluted ratio of 1 part MHB and 7 parts artificial seawater (25‰).
(§2) The protocol was followed to determine the minimum inhibitory concentration (MIC) of the selected peptides. Two MIC assays were performed, firstly to determine whether each peptide precipitated in MHB and thereby required acetic acid adjustments (supplementary materials) and secondly, to determine the antimicrobial activity of each peptide in artificial seawater (25‰). Peptide stock solutions (1.3 mg mL^−1) were made by diluting the peptides in sterile deionised water. MHB was made with deionised water to reach a concentration of approaching 0‰ and artificial sea salts (Sigma-Aldrich® S9883) to reach a salinity of 25‰.
(§3) A broth microdilution protocol was followed to test whether the AMPs precipitated in MHB. The isolates T. discolor and Pseudoalteromonas were excluded from this assay because they required marine salts for growth. The peptides HHC10 and HHC36 previously required acetic acid adjustments according to [63] and were not trialled in this assay. To test if peptides required acetic acid, each peptide was diluted 1:2 in acetic acid (0.02% acetic acid w/v, containing 0.4% BSA) solution. In a 96-well polypropylene microtitre plates (Costar® 3879), 100 µL of this peptide stock was added to the first well for each bacterial isolate tested and serially diluted 2-fold with acetic acid (0.01% acetic acid w/v, containing 0.2% BSA). From each well, 10 µL of each peptide concentration was added to the corresponding wells of a new 96-well microtitre plate. From each of the bacterial suspensions in MHB (0‰), 90 µL was added to each well. […] From each of the bacterial suspensions in MHB (0‰), 50 µL was added to each well. All peptide concentrations ranged from 0.125 - 65µg mL^-1 and the bacterial suspension in each well was approximately 5 × 10^5 CFU mL^-1. Antimicrobial peptides that have an MIC value two or more dilutions higher in the assay with no acetic acid, compared to the assay with acetic acid, require acetic acid adjustments. The 96-well plates were incubated at 25 °C and read at 24 and 48 hours. The MIC was visually determined using a Sensititre™ Vizion™ Digital MIC Viewing System (Thermo Scientific™), and the lowest AMP concentration that had no bacterial growth was recorded as the MIC after 48 hours. Each bacterium was trialled in duplicate.

Shewanella sp. [2] = details: 48 h
Description: as §1, §2, §3

Vibrio alginolyticus [3] = details: 48 h
Description: as §1, §2, §3

[4] = test system: Vibrio harveyi (ATCC 35084); details: ATCC 35084, 48 h
Description: as §1, §2, §3

Vibrio harveyi [5] = details: 48 h
Description: as §1, §2, §3

Vibrio rotiferianus [6] = details: 48 h
Description: as §1, §2, §3

Vibrio scophthalmi [7] = details: 48 h
Description: as §1, §2, §3

[8] = test system: Escherichia coli (ATCC 25922); details: ATCC 25922, 48 h; remark: listed apart in the source
Description: as §1, §2
(§4) Once the acetic acid requirement for each peptide was determined (Table 3), the antimicrobial activity of each peptide was tested at a salinity of 0‰ and 25‰ for all bacterial isolates. A stock solution for peptides that required acetic acid was prepared by a 1:2 dilution in acetic acid (0.02% acetic acid w/v, containing 0.4% BSA) solution. In a 96-well polypropylene microtitre plates (Costar® 3879), 100 µL of this peptide stock was added to the first well for each bacterial isolate tested and serially diluted twofold with acetic acid (0.01% acetic acid w/v, containing 0.2% BSA). From each well, 10 µL of each peptide concentration was added to the corresponding wells of a new 96-well microtitre plate. From each of the bacterial suspensions (0‰), 90 µL was added to each well. […] Twofold serial dilutions were made with MHB (0‰). From each of the bacterial suspensions (0‰), 50 µL was added to each well. The same method was followed for testing peptides in MHB at 25‰. All peptide concentrations ranged from 0.125 to 65 µg mL^−1, and the bacterial suspension in each well was approximately 5 × 10^5 CFU mL^−1. The different salinities were used to compare any differences in antimicrobial activity in 0‰ and 25‰ water. […] Each bacterium was trialled in duplicate.

Pseudoalteromonas sp. = details: 48 h
Description: as §1, §2, §4

Shewanella sp. [9] = details: 48 h; remark: listed apart in the source
Description: as §1, §2, §4

Tenacibaculum discolor = details: 48 h
Description: as §1, §2, §4

Vibrio alginolyticus [10] = details: 48 h; remark: listed apart in the source
Description: as §1, §2, §4

[11] = test system: Vibrio harveyi (ATCC 35084); details: ATCC 35084, 48 h; remark: listed apart in the source
Description: as §1, §2, §4

Vibrio harveyi [12] = details: 48 h; remark: listed apart in the source
Description: as §1, §2, §4

Vibrio rotiferianus [13] = details: 48 h; remark: listed apart in the source
Description: as §1, §2, §4

Vibrio scophthalmi [14] = details: 48 h; remark: listed apart in the source
Description: as §1, §2, §4

bacterial isolates [15] = details: 48 h
Description: as §1, §2, §4

bacterial isolates [16] = details: 48 h; remark: listed apart in the source
Description: as §1, §2
Once the acetic acid requirement for each peptide was determined (Table 3), the antimicrobial activity of each peptide was tested at a salinity of 0‰ and 25‰ for all bacterial isolates. A stock solution for peptides that required acetic acid was prepared by a 1:2 dilution in acetic acid (0.02% acetic acid w/v, containing 0.4% BSA) solution. In a 96-well polypropylene microtitre plates (Costar® 3879), 100 µL of this peptide stock was added to the first well for each bacterial isolate tested and serially diluted twofold with acetic acid (0.01% acetic acid w/v, containing 0.2% BSA). From each well, 10 µL of each peptide concentration was added to the corresponding wells of a new 96-well microtitre plate. From each of the bacterial suspensions (0‰), 90 µL was added to each well. […] Twofold serial dilutions were made with MHB (0‰). From each of the bacterial suspensions (0‰), 50 µL was added to each well. The same method was followed for testing peptides in MHB at 25‰. All peptide concentrations ranged from 0.125 to 65 µg mL^−1, and the bacterial suspension in each well was approximately 5 × 10^5 CFU mL^−1. […]

Substance	MIC E. coli ATCC 25922, Acetic [1]	MIC E. coli ATCC 25922, No acetic [1]	MIC Shewanella sp., Acetic (Shewanella sp. [2])	MIC Shewanella sp., No acetic (Shewanella sp. [2])	MIC E. coli ATCC 25922, salinity 0‰ [8]	MIC E. coli ATCC 25922, salinity 25‰ [8]	MIC Pseudoalteromonas sp., salinity 25‰ (Pseudoalteromonas sp.)	MIC Shewanella sp., salinity 0‰ (Shewanella sp. [9])	MIC Shewanella sp., salinity 25‰ (Shewanella sp. [9])	MIC T. discolor, salinity 25‰ (Tenacibaculum discolor)	MIC V. alginolyticus, salinity 0‰ (Vibrio alginolyticus [10])	MIC V. alginolyticus, salinity 25‰ (Vibrio alginolyticus [10])	MIC V. harveyi ATCC 35084, salinity 0‰ [11]	MIC V. harveyi ATCC 35084, salinity 25‰ [11]	MIC V. harveyi, salinity 0‰ (Vibrio harveyi [12])	MIC V. harveyi, salinity 25‰ (Vibrio harveyi [12])	MIC V. rotiferianus, salinity 0‰ (Vibrio rotiferianus [13])	MIC V. rotiferianus, salinity 25‰ (Vibrio rotiferianus [13])	MIC V. scophthalmi, salinity 0‰ (Vibrio scophthalmi [14])	MIC V. scophthalmi, salinity 25‰ (Vibrio scophthalmi [14])	further results
KKWQLLIKWKLR-NH2 [Peptide 3008]	> 65 µg/mL	> 65 µg/mL	8.13 µg/mL	16.25 µg/mL	8.13 µg/mL	> 65 µg/mL	> 65 µg/mL	16.25 µg/mL	32.5 µg/mL	> 65 µg/mL	2.03 µg/mL	> 65 µg/mL	8.13 µg/mL	> 65 µg/mL	4.06 µg/mL	> 65 µg/mL	2.03 µg/mL	> 65 µg/mL	< 0.13 µg/mL	32.5 µg/mL	MIC V. alginolyticus, Acetic (Vibrio alginolyticus [3]): 1.02 µg/mL; MIC V. alginolyticus, No acetic (Vibrio alginolyticus [3]): 2.03 µg/mL; MIC V. harveyi ATCC 35084, Acetic [4]: 16.25 µg/mL; MIC V. harveyi ATCC 35084, No acetic [4]: 16.25 µg/mL; MIC V. harveyi, Acetic (Vibrio harveyi [5]): 4.06 µg/mL; MIC V. harveyi, No acetic (Vibrio harveyi [5]): 4.06 µg/mL; MIC V. rotiferianus, Acetic (Vibrio rotiferianus [6]): 2.03 µg/mL; MIC V. rotiferianus, No acetic (Vibrio rotiferianus [6]): 1.02 µg/mL; MIC V. scophthalmi, Acetic (Vibrio scophthalmi [7]): 0.51 µg/mL; MIC V. scophthalmi, No acetic (Vibrio scophthalmi [7]): 1.02 µg/mL; MIC in artificial seawater (25‰) (over the bacterial isolates) (bacterial isolates [15]): 32.5 µg/mL
KRWWKWIRW-NH2 [HHC10]	–	–	–	–	4.06 µg/mL	> 65 µg/mL	> 65 µg/mL	4.06 µg/mL	> 65 µg/mL	> 65 µg/mL	2.03 µg/mL	> 65 µg/mL	4.06 µg/mL	> 65 µg/mL	8.13 µg/mL	> 65 µg/mL	2.03 µg/mL	> 65 µg/mL	2.03 µg/mL	> 65 µg/mL	MIC in low salt conditions (over the bacterial isolates) (bacterial isolates [16]): 1 to 10 µg/mL; MIC in artificial seawater (25‰) (over the bacterial isolates) (bacterial isolates [15]): > 65 µg/mL
ILVRWIRWRIQW-NH2 [Peptide 3002]	8.13 µg/mL	16.25 µg/mL	8.13 µg/mL	4.06 µg/mL	65 µg/mL	> 65 µg/mL	65 µg/mL	8.13 µg/mL	> 65 µg/mL	32.5 µg/mL	8.13 µg/mL	> 65 µg/mL	8.13 µg/mL	> 65 µg/mL	8.13 µg/mL	> 65 µg/mL	8.13 µg/mL	> 65 µg/mL	2.03 µg/mL	> 65 µg/mL	MIC V. alginolyticus, Acetic (Vibrio alginolyticus [3]): 4.06 µg/mL; MIC V. alginolyticus, No acetic (Vibrio alginolyticus [3]): 2.03 µg/mL; MIC V. harveyi ATCC 35084, Acetic [4]: 4.06 µg/mL; MIC V. harveyi ATCC 35084, No acetic [4]: 2.03 µg/mL; MIC V. harveyi, Acetic (Vibrio harveyi [5]): 4.06 µg/mL; MIC V. harveyi, No acetic (Vibrio harveyi [5]): 2.03 µg/mL; MIC V. rotiferianus, Acetic (Vibrio rotiferianus [6]): 4.06 µg/mL; MIC V. rotiferianus, No acetic (Vibrio rotiferianus [6]): 2.03 µg/mL; MIC V. scophthalmi, Acetic (Vibrio scophthalmi [7]): 1.02 µg/mL; MIC V. scophthalmi, No acetic (Vibrio scophthalmi [7]): 0.51 µg/mL; MIC in low salt conditions (over the bacterial isolates) (bacterial isolates [16]): 1 to 10 µg/mL
